{
  "source": "patent US12377056B2",
  "about": "“Cladribine regimen for treating multiple sclerosis” (priority 2006, dated 2025)",
  "key": {"[1]": {"system": "patients with relapsing forms of clinically definite multiple sclerosis", "assay": "Example 1: oral Cladribine in patients with relapsing forms of MS (MRI brain lesions, safety)", "assay_type": "in vivo, human", "settings": "for brain lesions (MRI): then maintenance", "source_text": "Each patient is first examined for normal hepatic, renal, and bone marrow functioning to establish baseline values. Patients are selected from Male or Female, between 18 and 55 years of age who had one or more relapses within the prior 12 months. Female patients are non-pregnant female. […] Patients are monitored to determine whether there is any progression or improvement of brain lesions associated with progression of MS through MRI scans and neurological examination as described in Miller et al., 1996, above; Evans et al., 1997, above; Sipe et al., 1984, above; and Mattson, 2002, above. All patients have a baseline and MRI study (brain or spinal cord, according to localization of the lesions) at month 12. The patient's disability progression and the time for having a first relapse are monitored as well as the proportion of relapse-free patients at 24 months. Lymphocyte markers and monocyte counts are monitored in the patients."}, "[2]": {"system": "patients with relapsing form of clinically definite MS who relapsed while taking Rebif®", "assay": "Example 2: oral Cladribine added to Rebif in MS patients with a relapse while taking Rebif (MRI brain lesions, safety)", "assay_type": "in vivo, human"}, "[3]": {"system": "patients with Chronic Progressive MS and Relapsing-Remitting MS", "settings": "cited from earlier work"}, "[4]": {"system": "patients with primary progressive (PP) or secondary progressive (SP) multiple sclerosis", "settings": "Phase III; 0.07 mg/kg/day s.c., repeated for 2 or 6 months; cited from earlier work"}, "[5]": {"system": "patients with remitting-relapsing multiple sclerosis", "settings": "oral, 6 monthly courses of 5 days, total dose about 4-5.7 mg/kg; compared with i.v. infusion study (Sipe et al., 1994); cited from earlier work"}, "[6]": {"settings": "oral 2-CdA cyclodextrin tablets, induction treatment followed by maintenance treatments"}, "[7]": {"settings": "oral 2-CdA induction and maintenance treatments combined with Rebif 44 mcg s.c. TIW, 96 weeks"}},
  "data": [
    {"smiles": "Nc1nc(Cl)nc2c1ncn2[C@H]1C[C@H](O)[C@@H](CO)O1", "note": "[Cladribine, 2-chloro-2′deoxyadenosine]", "values": [
      {"measurement": "brain lesions (MRI)", "setting": "[1]; Group 2: oral 2-CdA total dose 1.75 mg/kg over 2 months induction", "result": "decrease in brain lesions"},
      {"measurement": "brain lesions (MRI)", "setting": "[1]; Group 3: oral 2-CdA total dose 3.5 mg/kg over 4 months induction", "result": "decrease in brain lesions"},
      {"measurement": "adverse effects", "setting": "[1]; [6]", "result": "no severe adverse effect is observed"},
      {"measurement": "effect of the regimen on brain lesions", "setting": "[1]; [6]", "result": "efficient in decreasing brain lesions"},
      {"measurement": "brain lesions (MRI)", "setting": "[2]; Group 2: low dose cladribine (1.75 mg/kg induction + 1.75 mg/kg maintenance) added to Rebif 44 mcg s.c. TIW", "result": "decrease in brain lesions"},
      {"measurement": "brain lesions (MRI)", "setting": "[2]; Group 3: high dose cladribine (3.5 mg/kg induction + 1.75 mg/kg maintenance) added to Rebif 44 mcg s.c. TIW", "result": "decrease in brain lesions"},
      {"measurement": "adverse effects", "setting": "[2]; [7]", "result": "no severe adverse effect is observed"},
      {"measurement": "effect of the regimen on brain lesions", "setting": "[2]; [7]", "result": "efficient in decreasing brain lesions"},
      {"measurement": "EDSS, SNRS scores and MRI findings", "setting": "[3]; Phase II, 0.1 mg/kg/day 7 days i.v. x 4 months or 0.07 mg/kg/day 5 days s.c. x 6 months", "result": "positive effects"},
      {"measurement": "adverse effects (AEs)", "setting": "[3]; observed with the highest doses (Selby et al., 1998; Beutler et al., 1994)", "result": "increased incidence of infections related to compromised immune function or myelosuppression"},
      {"measurement": "MRI-measured brain lesions", "setting": "[4]", "result": "significant reduction of MRI-measured brain lesions"},
      {"measurement": "side effects", "setting": "[5]", "result": "less severe"}
    ]}
  ]
}
